# Literature values as cited in patent publication US20120035207A1, “Use of GABAA Receptor Agonists for the Treatment of Hearing, Vestibular and Attention Disorders, Intention Tremor and Restless Leg Syndrome” (priority 2003, published 2012).
# Target: T1, a4β3δ receptor (Homo sapiens, UniProt P28472+P48169)
# T1 construct: host or cells: mouse L(-tk) cells stably expressing the α4β3δ receptor (Brown et al; Adkins et al.)
# Conditions: reported by Brown et al, British J. Pharmacol., 136, 965-74 (2002)
# T1 sequence (P48169 36-554): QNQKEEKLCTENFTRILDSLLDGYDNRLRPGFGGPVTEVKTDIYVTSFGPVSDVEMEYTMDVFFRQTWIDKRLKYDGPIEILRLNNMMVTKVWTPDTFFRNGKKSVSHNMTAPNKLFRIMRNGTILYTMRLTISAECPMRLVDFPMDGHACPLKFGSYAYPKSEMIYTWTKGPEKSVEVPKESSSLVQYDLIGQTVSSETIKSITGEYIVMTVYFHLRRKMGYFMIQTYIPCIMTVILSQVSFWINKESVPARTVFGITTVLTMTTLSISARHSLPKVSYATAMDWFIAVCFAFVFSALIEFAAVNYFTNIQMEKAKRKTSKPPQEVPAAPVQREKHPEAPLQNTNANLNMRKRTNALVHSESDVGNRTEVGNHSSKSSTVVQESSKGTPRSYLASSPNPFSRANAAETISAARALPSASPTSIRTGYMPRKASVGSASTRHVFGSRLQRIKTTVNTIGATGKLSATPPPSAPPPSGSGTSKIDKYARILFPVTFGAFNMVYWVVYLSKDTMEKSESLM
# T1 sequence (P28472 26-473): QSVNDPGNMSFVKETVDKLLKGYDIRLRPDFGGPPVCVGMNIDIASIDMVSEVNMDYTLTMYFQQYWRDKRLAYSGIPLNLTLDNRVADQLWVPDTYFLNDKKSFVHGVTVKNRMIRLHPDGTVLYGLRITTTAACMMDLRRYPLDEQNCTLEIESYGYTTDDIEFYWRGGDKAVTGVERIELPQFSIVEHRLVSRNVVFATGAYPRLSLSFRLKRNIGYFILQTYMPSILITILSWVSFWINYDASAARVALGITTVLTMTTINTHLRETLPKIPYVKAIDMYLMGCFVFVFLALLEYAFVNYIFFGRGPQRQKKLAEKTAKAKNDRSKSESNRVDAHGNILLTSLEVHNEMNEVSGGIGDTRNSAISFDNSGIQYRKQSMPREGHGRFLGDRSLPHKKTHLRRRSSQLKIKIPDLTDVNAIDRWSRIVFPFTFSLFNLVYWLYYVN
# T1 sequence (O14764 17-452 partner limits assumed): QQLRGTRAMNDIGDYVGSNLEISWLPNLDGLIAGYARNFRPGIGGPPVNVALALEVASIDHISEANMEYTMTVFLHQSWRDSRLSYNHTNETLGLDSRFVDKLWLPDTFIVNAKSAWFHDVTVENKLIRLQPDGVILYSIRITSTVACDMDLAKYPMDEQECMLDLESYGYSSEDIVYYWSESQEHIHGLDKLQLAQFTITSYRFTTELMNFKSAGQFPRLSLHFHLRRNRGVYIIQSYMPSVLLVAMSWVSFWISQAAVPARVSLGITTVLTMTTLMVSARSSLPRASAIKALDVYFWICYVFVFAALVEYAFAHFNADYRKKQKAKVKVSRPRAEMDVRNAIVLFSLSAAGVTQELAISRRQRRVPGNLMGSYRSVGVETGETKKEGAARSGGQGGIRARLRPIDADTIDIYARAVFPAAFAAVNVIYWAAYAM
structure (smiles),measurement,value
"Oc1noc2c1CCNC2 [Gaboxadol, 4,5,6,7-tetrahydroisoxazolo[5,4-c]pyridin-3-ol]",agonist activity at the a4β3δ receptor,potent agonist
